In general, EC50 refers to the midpoint of the concentration-response curve.

The experiment deals with T1, human OX2R (Homo sapiens, UniProt O43614).
T1 construct: host or cells: CHO-K1 (Chinese Hamster Ovary K1)
T1 sequence (O43614 1-444): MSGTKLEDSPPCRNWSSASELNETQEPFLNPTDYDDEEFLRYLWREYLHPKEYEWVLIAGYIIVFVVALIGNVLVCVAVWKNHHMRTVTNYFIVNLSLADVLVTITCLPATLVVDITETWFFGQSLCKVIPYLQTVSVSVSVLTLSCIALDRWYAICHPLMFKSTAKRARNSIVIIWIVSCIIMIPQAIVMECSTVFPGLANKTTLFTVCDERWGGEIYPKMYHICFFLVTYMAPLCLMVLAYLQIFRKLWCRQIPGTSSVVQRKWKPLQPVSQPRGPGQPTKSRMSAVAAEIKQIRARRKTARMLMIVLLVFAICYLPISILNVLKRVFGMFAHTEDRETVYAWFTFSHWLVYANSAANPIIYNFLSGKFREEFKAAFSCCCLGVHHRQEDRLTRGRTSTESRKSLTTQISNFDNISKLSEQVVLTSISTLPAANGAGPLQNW
As to the kind of experiment: Evaluation of OX2R agonist activity (intracellular calcium, CHO-K1 cells with forced expression of human OX2R). It counts as cell-based. Conditions: CHO-K1 cells expressing human OX2R; 100% = 5 µM of the reference compound; read-out: hOX2R EC50. On the procedure:
Evaluation of OX2R agonist activity
Chinese Hamster Ovary K1 (CHO-K1) cells (GenScript) with forced expression of human OX2R were seeded onto a 384 well microplate (Corning) at 7500 cells/well and cultured for 24 hours. 20 µL of the loading buffer (25 mM HEPES containing 1.25 mM of Probenecid and 2.5 µg/mL of Fluo 4-AM at final concentration, Hank's balanced salt solution, 0.06% Pluronic F-127, Quenching buffer) in the Calcium Kit II (DOJINDO LABORATORIES) was added, and the microplate was allowed to stand for 30 minutes. A reference compound (Example435 of WO 2019/027058, N-[(2S,3S)-2-[[3-(3,5-difluorophenyl)-2-fluoro-phenyl]methyl]-1-(2-hydroxy-2-methylpropanoyl)pyrrolidin-3-yl]ethanesulfonamide) or the test compound was added in 10 µL, and changes in intracellular calcium ion concentration were measured using FDSS7000EX (Hamamatsu Photonics K.K.) as a fluorescence intensity ratio obtained upon dual wavelength excitation at 480 nm and 540 nm. Note that the reference compound or test compound was dissolved in DMSO (final concentration of DMSO was 0.5%) and diluted with an assay buffer (20 mM HEPES, Hank's balanced salt solution, 0.1% BSA). The difference between the maximum and minimum fluorescence values between 5 and 7 seconds after the addition of the test compound or reference compound was used as the indicator. The value of wells to which the assay buffer containing no test compound was added was defined as 0%, and the value of wells to which 5 µM of the reference compound was added was defined as 100%. The 50% effective concentration (EC50 value) was determined from the values obtained when various concentrations of the test compound were added. […]
As to `CS(=O)(=O)N[C@@H]1[C@H](Cc2cccc(-c3ccccc3)c2F)N(C(=O)C2(O)CC2)C2CC1(F)C2` [Example 71, N-{(3S,4R)-5-Fluoro-3-[(2-fluoro[biphenyl]-3-yl)methyl]-2-[(1-hydroxycyclopropyl)carbonyl]-2-azabicyclo[3.1.1]heptan-4-yl}methanesulfonamide], the EC50 is 39 nM. With `CCS(=O)(=O)N[C@@H]1[C@H](Cc2cccc(-c3ccccc3)c2F)N(C(=O)[C@@H](C)O)C2CC1(F)C2` (single isomer, unassigned) [Example 83] the figure was 19 nM; with `CN(C)S(=O)(=O)N[C@H]1C2CC(C2)N(C(=O)C(C)(C)O)[C@H]1Cc1cccc(-c2cc(F)cc(F)c2)c1F` (single isomer, unassigned) [Example 2], 89 nM. The value for `CS(=O)(=O)N[C@@H]1[C@H](Cc2cc(F)cc(-c3cccc(Cl)c3)c2F)N(C(=O)[C@H](O)C(F)(F)F)C2CC1(F)C2` (single isomer, unassigned) [Example 82] was 79 nM; that for `CS(=O)(=O)N[C@@H]1[C@H](Cc2cccc(-c3ccccc3)c2F)N(C(=O)c2cocn2)C2CC1(F)C2` [Example 55, N-[(3S,4R)-5-Fluoro-3-[(2-fluoro[biphenyl]-3-yl)methyl]-2-(1,3-oxazol-4-ylcarbonyl)-2-azabicyclo[3.1.1]heptan-4-yl]methanesulfonamide] was 591 nM; that for `CC(C)(O)C(=O)N1C2CC(C2)[C@H](NS(C)(=O)=O)[C@@H]1Cc1cccc(-c2cccc(Cl)n2)c1F` [Example 21, N-[(3S,4S)-3-[3-(6-Chloropyridin-2-yl)-2-fluorobenzyl]-2-(2-hydroxy-2-methylpropanoyl)-2-azabicyclo[3.1.1]heptan-4-yl]methanesulfonamide] was 217 nM. Regarding `CC(C)(O)C(=O)N1C2CC(C2)[C@H](NS(C)(=O)=O)[C@@H]1Cc1cccc(-c2cccc(C(F)(F)F)c2)c1F` [Example 18, N-[(3S,4S)-3-{[2-Fluoro-3'-(trifluoromethyl)[biphenyl]-3-yl]methyl}-2-(2-hydroxy-2-methylpropanoyl)-2-azabicyclo[3.1.1]heptan-4-yl]methanesulfonamide], the EC50 is 784 nM.

Consider `CS(=O)(=O)N[C@H]1C2CC(C2)N(C(=O)CO)[C@H]1Cc1cccc(-c2cc(F)cc(F)c2)c1F` [Example 34, N-{(3S,4S)-2-(Hydroxyacetyl)-3-[(2,3',5'-trifluoro[biphenyl]-3-yl)methyl]-2-azabicyclo[3.1.1]heptan-4-yl}methanesulfonamide], for which the EC50 stood at 289 nM. With `C[C@@H](O)C(=O)N1C2CC(C2)[C@H](NS(C)(=O)=O)[C@@H]1Cc1cccc(-c2cc(F)cc(C#N)c2)c1F` [Example 31, N-{(3S,4S)-3-[(3'-Cyano-2,5'-difluoro[biphenyl]-3-yl)methyl]-2-[(2R)-2-hydroxypropanoyl]-2-azabicyclo[3.1.1]heptan-4-yl}methanesulfonamide] the figure was 189 nM; with `CCS(=O)(=O)NC1C2CC(C2)N(C(=O)N2CCC2)C1Cc1cccc(-c2cc(F)cc(F)c2)c1F` (single isomer, unassigned) [Example 9, N-{2-(Azetidin-1-ylcarbonyl)-3-[(2,3',5'-trifluoro[biphenyl]-3-yl)methyl]-2-azabicyclo[3.1.1]heptan-4-yl}ethanesulfonamide], 89 nM; with `C=CS(=O)(=O)NC1C(Cc2cc(F)cc(-c3ccccc3)c2F)N(C(=O)[C@@H](C)O)C2CC1(F)C2` (single isomer, unassigned) [Example 96], 9.9 nM. `CS(=O)(=O)N[C@H]1C2CC(C2)N(C(=O)[C@H]2CCCO2)[C@H]1Cc1cccc(-c2cc(F)cc(F)c2)c1F` [Example 17, N-{(3S,4S)-2-[(2R)-Tetrahydrofuran-2-ylcarbonyl]-3-[(2,3',5'-trifluoro[biphenyl]-3-yl)methyl]-2-azabicyclo[3.1.1]heptan-4-yl}methanesulfonamide]: the concentration giving a half-maximal response (EC50) was 108 nM. As for `CS(=O)(=O)N[C@@H]1[C@H](Cc2cc(F)cc(-c3ccccc3)c2F)N(C(=O)[C@H](O)C(F)(F)F)C2CC1(F)C2` [Example 79, N-{(3S,4R)-3-[(2,5-Difluoro[biphenyl]-3-yl)methyl]-5-fluoro-2-[(2S)-3,3,3-trifluoro-2-hydroxypropanoyl]-2-azabicyclo[3.1.1]heptan-4-yl}methanesulfonamide], the EC50 stood at 40 nM. With `[2H]C([2H])([2H])[C@@]([2H])(O)C(=O)N1C2CC(F)(C2)[C@H](NS(=O)(=O)CC)[C@@H]1Cc1cccc(-c2ccccc2)c1F` [Example 90, N-{(3S,4R)-5-Fluoro-3-[(2-fluoro[biphenyl]-3-yl)methyl]-2-[(2R)-2-hydroxy(^2H4)propanoyl]-2-azabicyclo[3.1.1]heptan-4-yl}ethanesulfonamide] the figure was 21 nM; with `CS(=O)(=O)N[C@@H]1[C@H](Cc2cccc(-c3ccccc3)c2F)N(C(=O)[C@@H]2C[C@@H]2F)C2CC1(F)C2` [Example 66, N-[(3S,4R)-5-Fluoro-3-[(2-fluoro[biphenyl]-3-yl)methyl]-2-{[(1S,2S)-2-fluorocyclopropyl]carbonyl}-2-azabicyclo[3.1.1]heptan-4-yl]methanesulfonamide], 57 nM. In the case of `CC(C)C(=O)N1C2CC(C2)[C@H](NS(C)(=O)=O)[C@@H]1Cc1cccc(-c2ccccc2)c1F` [Example 57, N-[(3S,4S)-3-[(2-Fluoro[biphenyl]-3-yl)methyl]-2-(2-methylpropanoyl)-2-azabicyclo[3.1.1]heptan-4-yl]methanesulfonamide], the EC50 turned out to be 38 nM. `CC(C)S(=O)(=O)N[C@H]1C2CC(C2)N(C(=O)C(C)(C)O)[C@H]1Cc1cccc(-c2cc(F)cc(F)c2)c1F` (single isomer, unassigned) [Example 4]: the EC50 was found to be 225 nM.

In the case of `CS(=O)(=O)N[C@@H]1[C@H](Cc2cccc(-c3ccccc3)c2F)N(C(=O)[C@@H]2CC2(F)F)C2CC1(F)C2` [Example 78, N-{(3S,4R)-2-{[(1S)-2,2-Difluorocyclopropyl]carbonyl}-5-fluoro-3-[(2-fluoro[biphenyl]-3-yl)methyl]-2-azabicyclo[3.1.1]heptan-4-yl}methanesulfonamide], the EC50 worked out at 69 nM. With `CS(=O)(=O)NC1C2CC(C2)N(C(=O)C2CC2)C1Cc1ccnc(-c2cc(F)cc(F)c2)c1F` (single isomer, unassigned) [Example 22, N-[2-(Cyclopropylcarbonyl)-3-{[2-(3,5-difluorophenyl)-3-fluoropyridin-4-yl]methyl}-2-azabicyclo[3.1.1]heptan-4-yl]methanesulfonamide] the figure was 80 nM; with `C[C@@H](O)C(=O)N1C2CC(C2)[C@H](NS(C)(=O)=O)[C@@H]1Cc1cccc(-c2cccc(C(F)F)n2)c1F` [Example 47, N-{(3S,4S)-3-{3-[6-(Difluoromethyl)pyridin-2-yl]-2-fluorobenzyl}-2-[(2R)-2-hydroxypropanoyl]-2-azabicyclo[3.1.1]heptan-4-yl}methanesulfonamide], 117 nM. Consider `CS(=O)(=O)N[C@H]1C2CC(C2)N(C(=O)[C@@H]2C[C@H]2F)[C@H]1Cc1cccc(-c2cc(F)cc(F)c2)c1F` [Example 30, N-{(3S,4S)-2-{[(1S,2R)-2-Fluorocyclopropyl]carbonyl}-3-[(2,3',5'-trifluoro[biphenyl]-3-yl)methyl]-2-azabicyclo[3.1.1]heptan-4-yl}methanesulfonamide], for which the EC50 amounted to 148 nM.

(Values after EP4635944A1, “2-AZABICYCLO[3.1.1]HEPTANE COMPOUND” (Daiichi Sankyo Company, Limited, priority 2022, dated 2024).)
